Source: patent publication US6737431B2 (Bristol-Myers Squibb Company, priority 2002, dated 2004)

Assays:
[1] = target: T1, melatonin ML1b receptor (Homo sapiens, UniProt P49286); assay: Melatonergic receptor binding, 2-[125I]-iodomelatonin, ML1b; conditions: NIH-3T3 membranes, 0.2 nM 2-[125I]-iodomelatonin, 37° C. 1 hour
T1 construct: expressed in transfected cells; membrane homogenates
T1 sequence (P49286 1-362): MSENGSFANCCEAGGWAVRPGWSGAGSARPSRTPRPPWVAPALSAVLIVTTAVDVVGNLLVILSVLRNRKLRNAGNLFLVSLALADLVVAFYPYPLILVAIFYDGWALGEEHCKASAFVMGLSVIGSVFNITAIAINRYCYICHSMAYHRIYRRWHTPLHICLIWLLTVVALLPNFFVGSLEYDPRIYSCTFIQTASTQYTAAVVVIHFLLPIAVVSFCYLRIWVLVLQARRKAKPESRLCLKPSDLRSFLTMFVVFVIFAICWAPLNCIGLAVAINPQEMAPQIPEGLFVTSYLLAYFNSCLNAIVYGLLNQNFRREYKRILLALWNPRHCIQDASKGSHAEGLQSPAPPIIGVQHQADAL
Method: (§1) Melatonergic Receptor Binding Activity
(§2) (a) TME=50 mM Tris buffer containing 12.5 mM MgCl2, and 2 mM EDTA, pH 7.4 at 37° C., with concentrated HCl.
(§3) (b) Wash buffer: 20 mM Tris base containing 2 mM MgCl2, pH 7.4 at room temperature.
(§4) (c) 10^−4 M melatonin (10^−5 M final concentration).
(e) 2-[^125I]-iodomelatonin ML1b, 0.2 nM final concentration.
(§5) 2. Membrane Homogenates: The melatonin ML1a and ML1b receptors cDNA were individually subcloned into pcDNA3 and introduced into NIH-3T3 cells using Lipofectamine. Transformed NIH-3T3 cells resistant to geneticin (G-418) were isolated, and single colonies expressing high levels of 2[^125I]-iodomelatonin binding were isolated. Cells are maintained in DMEM supplemented with 10% calf serum and G-418 (0.5 g/liter). Cells are grown to confluency in T-175 flasks, scraped using Hank's balanced salt solution, and frozen at −80° C. For preparing membrane homogenates, pellets are thawed on ice, and re-suspended in TME buffer in the presence of 10 μg/ml aprotinin and leupeptin, and 100 μM phenylmethylsulfonylfluoride. The cells were then homogenized using a dounce homogenizer, and centrifuged. The resulting pellet was re-suspended with dounce homogenizer in TME (supplemented with the above protease inhibitors) and frozen. On the day of assay, a small aliquot was thawed on ice and re-suspended in the ice cold TME (1:50-1:100 v/v) and held on ice until assayed.
(§6) 3. Incubation: 37° C. for 1 hour. Reaction is terminated by filtration. Filters were washed 3 times.
(§7) 4. References: Reppert, S. M. et al., Neuron, 13, p. 1177-1185 (1994); and Reppert, S. M. et al., Proc. Natl. Acad. Sci. USA, 92, p. 8734-8738 (1995).
(§8) The compounds of the present invention have affinity for receptors of the endogenous pineal hormone, melatonin, as determined in receptor binding assays described above in Tables I to III for the ML1a and ML1b (human) receptors. Melatonin is involved in the regulation of a variety of biological rhythms and exerts its biological effects via interaction with specific receptors. There is evidence that administration of melatonin agonists are of clinical utility in the treatment of various conditions regulated by melatonin activity. Such conditions include depression, jet-lag, work-shift syndrome, sleep disorders, glaucoma, some disorders associated with reproduction, cancer benign prostatic hyperplasia, immune disorders, and neuroendocrine disorders.

[2] = target: T2, melatonin ML1a receptor (Homo sapiens, UniProt P48039); assay: Melatonergic receptor binding, 2-[125I]-iodomelatonin, ML1a; conditions: NIH-3T3 membranes, 0.1 nM 2-[125I]-iodomelatonin, 37° C. 1 hour
T2 construct: expressed in transfected cells; membrane homogenates
Method: as §1, §2, §3, §4
(d) 2-[^125I]-iodomelatonin ML1a, 0.1 nM final concentration.
as §5, §6, §7, §8

T2 sequence (P48039 whole entry): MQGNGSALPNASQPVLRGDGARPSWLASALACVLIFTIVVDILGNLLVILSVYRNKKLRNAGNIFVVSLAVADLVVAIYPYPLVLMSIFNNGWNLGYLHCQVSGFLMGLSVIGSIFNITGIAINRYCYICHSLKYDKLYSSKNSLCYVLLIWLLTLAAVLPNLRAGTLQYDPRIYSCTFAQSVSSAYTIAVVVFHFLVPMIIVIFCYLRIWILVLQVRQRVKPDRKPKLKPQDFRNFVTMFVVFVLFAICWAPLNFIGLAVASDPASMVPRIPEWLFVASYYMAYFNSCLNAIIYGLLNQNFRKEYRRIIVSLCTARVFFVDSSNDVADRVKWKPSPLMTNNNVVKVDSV

| Compound | IC50 ([1]; Table II) [nM] | IC50 ([2]; Table II) [nM] | IC50 ([1]; Table III) [nM] | IC50 ([2]; Table III) [nM] |
| --- | --- | --- | --- | --- |
| C=Cc1cc(CCCNC(=O)c2ccccc2)c2oc(CC)nc2c1 [Example 71, N-[3-(2-Ethyl-5-vinylbenzoxazol-7-yl)propyl]benzamide] | > 250 | > 250 |  |  |
| C=Cc1cc(CCCNC(=O)C2CC2)c2oc(CC)nc2c1 [Example 72, Cyclopropyl-N-[3-(2-ethyl-5-vinylbenzoxazol-7-yl)propyl]carboxamide] | > 250 | > 250 |  |  |
| CCc1nc2ccc(-c3ccco3)c(CCCNC(C)=O)c2o1 [Example 73, N-[3-(2-Ethyl-6-(2-furyl)benzoxazol-7-yl)propyl]acetamide] | < 10 | < 10 |  |  |
| CCc1nc2ccc(-c3ccco3)c(CCCNC(=O)C3CC3)c2o1 [Example 75, Cyclopropyl-N-[3-(2-ethyl-6-(2-furyl)benzoxazol-7-yl)propyl]carboxamide] | < 10 | 10 to 250 |  |  |
| CCc1nc2cccc([C@@H]3C[C@H]3CNC(C)=O)c2o1 [Example 76, N-{[(1R,2R)-2-(2-Ethylbenzoxazol-7-yl)cyclopropyl]methyl}acetamide] |  |  | < 10 | < 10 |
| CCC(=O)NC[C@@H]1C[C@H]1c1cccc2nc(CC)oc12 [Example 77, N-{[(1R,2R)-2-(2-Ethylbenzoxazol-7-yl)cyclopropyl]methyl}propanamide] |  |  | < 10 | < 10 |
| CCCC(=O)NC[C@@H]1C[C@H]1c1cccc2nc(CC)oc12 [Example 78, N-{[(1R,2R)-2-(2-Ethylbenzoxazol-7-yl)cyclopropyl]methyl}butanamide] |  |  | < 10 | < 10 |
| CCc1nc2cccc([C@@H]3C[C@H]3CNC(=O)C(C)C)c2o1 [Example 79, N-{[(1R,2R)-2-(2-Ethylbenzoxazol-7-yl)cyclopropyl]methyl}-2-methylpropanamide] |  |  | < 10 | < 10 |
| CCc1nc2cccc([C@@H]3C[C@H]3CNC(=O)C3CC3)c2o1 [Example 80, N-{[(1R,2R)-2-(2-Ethylbenzoxazol-7-yl)cyclopropyl]methyl}cyclopropylcarboxamide] |  |  | < 10 | < 10 |
| CCNC(=O)NC[C@@H]1C[C@H]1c1cccc2nc(CC)oc12 [Example 81, N-{[(1R,2R)-2-(2-Ethylbenzoxazol-7-yl)cyclopropyl]methyl}(ethylamino)carboxamide] |  |  | < 10 | < 10 |
| CCCc1nc2cccc([C@@H]3C[C@H]3CNC(C)=O)c2o1 [Example 82, N-{[(1R,2R)-2-(2-Propylbenzoxazol-7-yl)cyclopropyl]methyl}acetamide] |  |  | < 10 | < 10 |
| CC(=O)NC[C@@H]1C[C@H]1c1cccc2nc(C(C)C)oc12 [Example 83, N-({(1R,2R)-2-[2-(Methylethyl)benzoxazol-7-yl]cyclopropyl}methyl)acetamide] |  |  | < 10 | 10 to 250 |
| CCCc1nc2cccc([C@@H]3C[C@H]3CNC(=O)CC)c2o1 [Example 84, N-{[(1R,2R)-2-(2-Propylbenzoxazol-7-yl)cyclopropyl]methyl}propanamide] |  |  | < 10 | < 10 |
| CCC(=O)NC[C@@H]1C[C@H]1c1cccc2nc(C(C)C)oc12 [Example 85, N-({(1R,2R)-2-[2-(Methylethyl)benzoxazol-7-yl]cyclopropyl}methyl)propanamide] |  |  | < 10 | < 10 |
| CCCC(=O)NC[C@@H]1C[C@H]1c1cccc2nc(CCC)oc12 [Example 86, N-{[(1R,2R)-2-(2-Propylbenzoxazol-7-yl)cyclopropyl]methyl}butanamide] |  |  | < 10 | < 10 |
| CCCC(=O)NC[C@@H]1C[C@H]1c1cccc2nc(C(C)C)oc12 [Example 87, N-({(1R,2R)-2-[2-(Methylethyl)benzoxazol-7-yl]cyclopropyl}methyl)butanamide] |  |  | < 10 | < 10 |
| CCCc1nc2cccc([C@@H]3C[C@H]3CNC(=O)C3CC3)c2o1 [Example 90, N-{[(1R,2R)-2-(2-Propylbenzoxazol-7-yl)cyclopropyl]methyl}cyclopropylcarboxamide] |  |  | < 10 | < 10 |
| CC(C)c1nc2cccc([C@@H]3C[C@H]3CNC(=O)C3CC3)c2o1 [Example 91, N-({(1R,2R)-2-[2-(Methylethyl)benzoxazol-7-yl]cyclopropyl}methyl)cyclopropylcarboxamide] |  |  | < 10 | < 10 |
| CCCc1nc2cccc([C@@H]3C[C@H]3CNC(=O)NCC)c2o1 [Example 92, N-{[(1R,2R)-2-(2-Propylbenzoxazol-7-yl)cyclopropyl]methyl}(ethylamino)carboxamide] |  |  | < 10 | < 10 |
| CCNC(=O)NC[C@@H]1C[C@H]1c1cccc2nc(C(C)C)oc12 [Example 93, N-({(1R,2R)-2-[2-(Methylethyl)benzoxazol-7-yl]cyclopropyl}methyl)(ethylamino)carboxamide] |  |  | 10 to 250 | 10 to 250 |
| N-({(1R,2R)-2-[2-(5-Phenylbutyl)benzoxazol-7-yl]cyclopropyl}methyl)-2-methylpropanamide [Example 97] |  |  | < 10 | < 10 |
| N-({(1R,2R)-2-[2-(5-Phenylbutyl)benzoxazol-7-yl]cyclopropyl}methyl)acetamide [Example 94] |  |  | < 10 | < 10 |
| N-({(1R,2R)-2-[2-(5-Phenylbutyl)benzoxazol-7-yl]cyclopropyl}methyl)butanamide [Example 96] |  |  | < 10 | < 10 |
| N-({(1R,2R)-2-[2-(5-Phenylbutyl)benzoxazol-7-yl]cyclopropyl}methyl)cyclopropylcarboxamide [Example 98] |  |  | < 10 | < 10 |
| N-({(1R,2R)-2-[2-(5-Phenylbutyl)benzoxazol-7-yl]cyclopropyl}methyl)propanamide [Example 95] |  |  | < 10 | < 10 |
| N-({(1R,2R)-2-[2-(Methylethyl)benzoxazol-7-yl]cyclopropyl}methyl)-3-methylbutanamide [Example 89] |  |  | < 10 | < 10 |
